Tests used:
[1] = molecular target: T1, A- (V68M, N126D) G6PD (Homo sapiens, UniProt P11413, N126D/V68M); assay: Native gel electrophoresis, dimerization of variant
T1 construct: His (pET-28a) (N, cleaved yes); made in house; host or cells: E. coli C43 (DE3)
Procedure: (§1) 200 ng of recombinant enzymes were incubated with the compound (varying in assays) for 10 minutes at room temperature. To prevent streaking and artifacts in native PAGE gel, the samples in a native state (no boiling of sample and no reducing agent in sample buffer) were electrophoresed by […]. Cross-linking assay was initiated by incubating 500 ng of recombinant enzymes in PBS with 0.1% of glutaraldehyde and different concentrations of NADP^+ (0, 10, 100, 1000 μM) or MgCl2 (0, 1, 10, 100 mM). The mixture was incubated for 10 minutes at room temperature, which was followed by the addition of 100 mM Tris (pH 8.0) at a final concentration to terminate the reaction. The samples were electrophoresed as described above.

[2] = molecular target: T2, Kaiping (R463H) G6PD (Homo sapiens, UniProt P11413, R463H); assay: as above
T2 construct: His (pET-28a) (N, cleaved yes); made in house; host or cells: E. coli C43 (DE3)
T2 sequence (P11413 whole entry R463H): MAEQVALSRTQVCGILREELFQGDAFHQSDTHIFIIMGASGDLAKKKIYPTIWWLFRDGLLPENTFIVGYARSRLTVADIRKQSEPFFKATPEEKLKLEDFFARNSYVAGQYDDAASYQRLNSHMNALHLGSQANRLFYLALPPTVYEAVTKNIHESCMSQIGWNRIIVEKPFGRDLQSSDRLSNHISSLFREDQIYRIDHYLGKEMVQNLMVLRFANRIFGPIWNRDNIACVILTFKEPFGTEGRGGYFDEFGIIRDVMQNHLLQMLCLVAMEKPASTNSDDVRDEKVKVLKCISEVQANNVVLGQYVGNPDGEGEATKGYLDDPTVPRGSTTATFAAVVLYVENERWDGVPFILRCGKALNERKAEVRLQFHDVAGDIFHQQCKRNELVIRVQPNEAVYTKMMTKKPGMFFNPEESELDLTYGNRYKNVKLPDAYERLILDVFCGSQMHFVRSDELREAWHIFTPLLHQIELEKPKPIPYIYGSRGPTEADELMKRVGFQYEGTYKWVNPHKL
Procedure: as §1

[3] = molecular target: T3, Mediterranean (S188F) G6PD (Homo sapiens, UniProt P11413, S188F); assay: as above
T3 construct: His (pET-28a) (N, cleaved yes); made in house; host or cells: E. coli C43 (DE3)
T3 sequence (P11413 whole entry S188F): as the sequence (P11413 whole entry R463H) above, with S188F, H463R counted along it
Procedure: as §1

[4] = molecular target: T4, Canton G6PD in SH-SY5Y cells (Homo sapiens, UniProt P11413, R459L); assay: Stability of Canton G6PD in SH-SY5Y cells; assay type: cell-based
T4 construct: expressed in transfected cells; host or cells: SH-SY5Y neuroblastoma cells
T4 sequence (P11413 whole entry R459L): as the sequence (P11413 whole entry R463H) above, with R459L, H463R counted along it
Procedure: Prior to the cellular-based assays using SH-SH5Y cells, duration of overexpression of WT G6PD and Canton variant was examined by transfecting the cells seeded in a 12-well plate. The genes encoding human WT G6PD and Canton variant were first PCR-amplified, which was then inserted into pcDNA 3.1/myc-His C (ThermoFisher Scientific) using HindIII and XhoI. 0.5 μg of cDNA and 1.5 μg of lipofectamine (Invitrogen) were diluted in 50 μL of Opti-MEM medium respectively and incubated for 5 minutes. The diluted DNA was combined with diluted lipofectamine, which was followed by incubation for 20 minutes prior to the addition to cells.
The transfected cells were collected at different time points (up to 72 hours) and the overexpressed G6PD levels were examined by Western blot. The transfection was carried out in serum-starved cells. Once the duration of expression was confirmed, other cellular-based assays were performed.
50,000 cells (SH-SH5Y cells or fibroblast cells) or 100,000 cells (lymphocytes) were seeded in a 12-well plate and incubated overnight. The cells were subjected to serum starvation (50-75%) for 48 hours and treated with 50 μg/ml of cycloheximide at different time points (0-48 hours). The cells were treated with the compound (1 μM) for 48 hours together with cycloheximide. […]

[5] = tested on: fibroblasts with the Mediterranean variant; assay: Viability of fibroblasts, with and without siRNA knockdown; assay type: cell-based, human
Procedure: Cell viability was measured using a Cell-Counting Kit-8 (CCK-8, Dojindo), utilizing WST-8 [2-(2-methoxy-4-nitrophenyl)-3-(4-nitrophenyl)-5-(2,4-disulfophenyl)-2H-tetrazolium monosodium salt, according to the manufacturer's instructions. Cells were subjected to serum starvation for 48 hours before measurement. Cells in 100 μL of medium per well were treated with 10 μL of CCK-8 solution and incubated for 2 hours at 37° C. The absorbance was read at 450 nm. Viability of lymphocytes was measured by staining with a 0.4% solution of trypan blue in buffered isotonic salt solution (pH 7.2). The viability was calculated as the number of viable cells (non-stained by the dye) divided by the total number of cells within the grids on the hemacytometer. Cells were treated with 1 μM of the compound 24 hours before the measurement.
Endogenous G6PD was knocked down in each cell line as follows; 2 pmol of siRNA G6PD (Santa Cruz Biotechnology) and 0.5 μg lipofectamine (Invitrogen) were diluted in 10 μL of Opti-MEM medium respectively and incubated for 5 minutes. The diluted siRNA was combined with diluted lipofectamine, which was followed by additional incubation for 20 minutes prior to the addition to cells in a 96-well plate.

[6] = tested on: zebrafish embryos; assay: Pericardial edema in zebrafish embryos; assay type: in vivo
Procedure: Embryos were dechorinated with pronase at 24 hours post fertilization (hpf) and treated with 50 μg/ml of chloroquine and/or AG1 by directly adding the compounds to the well. For ROS measurements, embryos were incubated with compounds for 2 hours, and then the ROS detecting reagent (CM-H2DCFDA) was added at a final concentration of 500 ng/ml to the well for a total treatment time of 5 hours. One embryo was placed to each well of a black, opaque 96-well plate. The florescence was analyzed with excitation/emission at 485/525 nm. After ROS assays, embryos at about 32 hpf were pooled and lysed in buffer containing 50 mM Tris (pH 7.4), 150 mM NaCl, 1 mM EDTA, 0.1% NP-40, and protease inhibitor cocktail, which was followed by three cycles of freeze and thawing in liquid nitrogen. The lysate was centrifuged at 14,000 rpm at 4° C. for 15 minutes. Total protein concentration in the supernatants (total lysate) was determined by Bradford method. 50 μg of total lysate was loaded onto 10% SDS-PAGE gels and the protein level was examined by Western blot using anti-G6PD antibody (Abcam (G6PD: AB87230)). 10 μg of total lysate was used for enzymatic assay. 50 μg of the lysate was used to measure NADPH levels using a NADPH quantification kit (Biovision), according to the manufacturer's instructions.
Live embryos were anesthetized and mounted in 3% methylcellulose. Embryos were imaged with a Leica M205FA microscope equipped with a 1.0× Plan Apochromatic objective and a SPOT Flex camera or a Leica DM4500B compound microscope equipped with a QImaging Retiga-SRV camera. For hemoglobin staining, fixed embryos were stained with o-dianisidine as previously reported (10), cleared, mounted in 100% glycerol, and imaged with a Leica M205FA microscope equipped with a 1.0× Plan Apochromatic objective and a SPOT Flex camera. All images were captured using SPOT or MetaMorph imaging software (Diagnostic Imaging Inc.) and processed in Photoshop (Adobe). Adjustments were limited to brightness levels and cropping. Analysis was carried out by an observer blinded to the experimental conditions.

T1 sequence (P11413 whole entry V68M/N126D): as the sequence (P11413 whole entry R463H) above, with V68M, N126D, H463R counted along it

In the case of `SCCNCCc1c[nH]c2ccccc12` [AG1, 2-[2-(1H-indol-3-yl)ethylamino]ethanethiol], the dimerization of variant [1] is reported as “promoted their dimerization”, the dimerization of variant [2] is reported as “promoted their dimerization” and the dimerization of variant [3] is reported as “promoted their dimerization”. For the same compound, the “stability of Canton G6PD” value [4] was “increased”, the rescue of viability ([5]; Mediterranean G6PD expression knocked down by siRNA) was “did not rescue” and the improvement of viability ([5]; stress conditions) was 22%. For the same compound, the “embryos exhibiting pericardial edema” value ([6]; chloroquine 50 μg/ml) was “less embryos exhibiting pericardial edema” and the “pericardial edema due to mesoderm defects” value ([6]; tbx16 mutants) was “not corrected”.
